Test results from patent US9695155B2, “Herbicidal substituted pyrimidinyloxy benzene compounds” (E. I. DU PONT DE NEMOURS AND COMPANY, priority 2013, dated 2017).

Columns and labels:
wheat [1] = experiment: Test A postemergence; assay type: in vivo, Triticum aestivum; conditions: for Wheat plant response rating: 125 g ai/ha
How it was run: (§1)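 Greenhouse pot test, loam/sand soil. Formulation: non-phytotoxic solvent mix plus surfactant. Pre: directed spray onto soil after sowing. Post: plants at 1–2 leaf, 2–10 cm. Rated visually vs untreated controls at ~10 d, 0 (no effect) to 100 (complete control).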

velvetleaf [2] = experiment: Test A postemergence; assay type: in vivo, Abutilon theophrasti; conditions: for Velvetleaf plant response rating: 125 g ai/ha
How it was run: as §1

morningglory [3] = experiment: Test A preemergence; assay type: in vivo, Ipomoea spp.; conditions: for Morningglory plant response rating (0 to 100 scale): 125 g ai/ha
How it was run: as §1

velvetleaf [4] = experiment: Test A preemergence; assay type: in vivo, Abutilon theophrasti; conditions: for Velvetleaf plant response rating (0 to 100 scale): 125 g ai/ha
How it was run: as §1

barnyardgrass [5] = experiment: Test B flooded paddy test; assay type: in vivo, Echinochloa crus-galli; conditions: Flood, 250 g ai/ha; 0 to 100 scale where 0 is no effect and 100 is complete control
How it was run: (§2)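 Visual ratings on a 0 to 100 scale, where 100 means complete control, compared treated plants with controls after 13 to 15 days in a greenhouse. Treatment went into paddy water 3 cm deep over the soil, applied to plants at the 2-leaf stage.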

sedge, umbrella = experiment: Test B flooded paddy test; assay type: in vivo, Cyperus difformis; conditions: Flood, 250 g ai/ha; 0 to 100 scale where 0 is no effect and 100 is complete control
How it was run: as §2

wheat [6] = experiment: Test A preemergence; assay type: in vivo, Triticum aestivum; conditions: for Wheat plant response rating (0 to 100 scale): 125 g ai/ha
How it was run: as §1

pigweed [7] = experiment: Test A postemergence; assay type: in vivo, Amaranthus retroflexus; conditions: for Pigweed plant response rating: 125 g ai/ha
How it was run: as §1

large (Lg) crabgrass [8] = experiment: Test A preemergence; assay type: in vivo, Digitaria sanguinalis; conditions: for Crabgrass, Large plant response rating (0 to 100 scale): 125 g ai/ha
How it was run: as §1

large (Lg) crabgrass [9] = experiment: Test A postemergence; assay type: in vivo, Digitaria sanguinalis; conditions: for Crabgrass, Large plant response rating: 125 g ai/ha
How it was run: as §1

pigweed [10] = experiment: Test A preemergence; assay type: in vivo, Amaranthus retroflexus; conditions: for Pigweed plant response rating (0 to 100 scale): 125 g ai/ha
How it was run: as §1

Heteranthera limosa = experiment: Test B flooded paddy test; assay type: in vivo; conditions: Flood, 250 g ai/ha; 0 to 100 scale where 0 is no effect and 100 is complete control
How it was run: as §2

giant foxtail [11] = experiment: Test A postemergence; assay type: in vivo, Setaria faberii; conditions: for Foxtail, Giant plant response rating: 125 g ai/ha
How it was run: as §1

morningglory [12] = experiment: Test A postemergence; assay type: in vivo, Ipomoea spp.; conditions: for Morningglory plant response rating: 125 g ai/ha
How it was run: as §1

corn [13] = experiment: Test A preemergence; assay type: in vivo, Zea mays; conditions: for Corn plant response rating (0 to 100 scale): 125 g ai/ha
How it was run: as §1

barnyardgrass [14] = experiment: Test A postemergence; assay type: in vivo, Echinochloa crus-galli; conditions: for Barnyardgrass plant response rating: 125 g ai/ha
How it was run: as §1

giant foxtail [15] = experiment: Test A preemergence; assay type: in vivo, Setaria faberii; conditions: for Foxtail, Giant plant response rating (0 to 100 scale): 125 g ai/ha
How it was run: as §1

corn [16] = experiment: Test A postemergence; assay type: in vivo, Zea mays; conditions: for Corn plant response rating: 125 g ai/ha
How it was run: as §1

barnyardgrass [17] = experiment: Test A preemergence; assay type: in vivo, Echinochloa crus-galli; conditions: for Barnyardgrass plant response rating (0 to 100 scale, 0 is no effect, 100 is complete control): 125 g ai/ha
How it was run: as §1

rice = experiment: Test B flooded paddy test; assay type: in vivo, Oryza sativa; conditions: Flood, 250 g ai/ha; 0 to 100 scale where 0 is no effect and 100 is complete control
How it was run: as §2

[18] = 0 to 100 scale where 0 is no effect and 100 is complete control
[19] = 500 g ai/ha, 0 to 100 scale where 0 is no effect and 100 is complete control
[20] = 1000 g ai/ha, 0 to 100 scale, 0 no effect, 100 complete control
[21] = 1000 g ai/ha, 0 to 100 scale, 0 no effect, 100 complete control, approx. 10 days

| Compound | Wheat plant response rating (wheat [1]; [18]) | Plant response rating, Wheat (wheat [1]; [19]) | Velvetleaf plant response rating (velvetleaf [2]; [18]) | Plant response rating, Velvetleaf (velvetleaf [2]; [19]) | Morningglory plant response rating (0 to 100 scale) (morningglory [3]) | Morningglory plant response rating (morningglory [3]; [19]) | Velvetleaf plant response rating (0 to 100 scale) (velvetleaf [4]) | Velvetleaf plant response rating (velvetleaf [4]; [19]) | Plant response rating, Barnyardgrass (barnyardgrass [5]) | Plant response rating, Sedge, Umbrella (sedge, umbrella) | Wheat plant response rating (0 to 100 scale) (wheat [6]) | Wheat plant response rating (wheat [6]; [19]) | Pigweed plant response rating (pigweed [7]; [18]) | Plant response rating, Pigweed (pigweed [7]; [19]) | Crabgrass, Large plant response rating (0 to 100 scale) (large (Lg) crabgrass [8]) | Crabgrass, Large plant response rating (large (Lg) crabgrass [8]; [19]) | Crabgrass, Large plant response rating (large (Lg) crabgrass [9]; [18]) | Plant response rating, Crabgrass, Large (large (Lg) crabgrass [9]; [19]) | Plant response rating, Ducksalad (Heteranthera limosa) | Plant response rating, Rice (rice) | other results |
| --- | --- | --- | --- | --- | --- | --- | --- | --- | --- | --- | --- | --- | --- | --- | --- | --- | --- | --- | --- | --- | --- |
| COc1cnn(-c2ccccc2Oc2ncc(Cl)cn2)c1 [Compound 186] | 0 | 60 | 80 | 90 | 0 | 20 | 70 | 100 | 0 | 0 | 0 | 20 | 100 | 100 | 100 | 100 | 40 | 70 | 0 | 0 | Pigweed plant response rating (0 to 100 scale) (pigweed [10]): 100; Pigweed plant response rating (pigweed [10]; [19]): 100; Foxtail, Giant plant response rating (giant foxtail [11]; [18]): 20; Plant response rating, Foxtail, Giant (giant foxtail [11]; [19]): 80; Morningglory plant response rating (morningglory [12]; [18]): 60; Plant response rating, Morningglory (morningglory [12]; [19]): 100; Corn plant response rating (0 to 100 scale) (corn [13]): 0; Corn plant response rating (corn [13]; [19]): 0; Barnyardgrass plant response rating (barnyardgrass [14]; [18]): 20; Plant response rating, Barnyardgrass (barnyardgrass [14]; [19]): 70; Foxtail, Giant plant response rating (0 to 100 scale) (giant foxtail [15]): 80; Foxtail, Giant plant response rating (giant foxtail [15]; [19]): 100; Corn plant response rating (corn [16]; [18]): 0; Plant response rating, Corn (corn [16]; [19]): 30; Barnyardgrass plant response rating (0 to 100 scale, 0 is no effect, 100 is complete control) (barnyardgrass [17]): 30; Barnyardgrass plant response rating (barnyardgrass [17]; [19]): 100 |
| Clc1cnc(Oc2ccccc2-n2cc(-c3ccccn3)cn2)nc1 [Compound 190] | 0 | 0 | 60 | 80 | 0 | 20 | 50 | 60 | 0 | 0 | 0 | 0 | 100 | 100 | 20 | 90 | 10 | 50 | 0 | 0 | Pigweed plant response rating (0 to 100 scale) (pigweed [10]): 100; Pigweed plant response rating (pigweed [10]; [19]): 100; Foxtail, Giant plant response rating (giant foxtail [11]; [18]): 0; Plant response rating, Foxtail, Giant (giant foxtail [11]; [19]): 40; Morningglory plant response rating (morningglory [12]; [18]): 30; Plant response rating, Morningglory (morningglory [12]; [19]): 90; Corn plant response rating (0 to 100 scale) (corn [13]): 0; Corn plant response rating (corn [13]; [19]): 0; Barnyardgrass plant response rating (barnyardgrass [14]; [18]): 0; Plant response rating, Barnyardgrass (barnyardgrass [14]; [19]): 10; Foxtail, Giant plant response rating (0 to 100 scale) (giant foxtail [15]): 10; Foxtail, Giant plant response rating (giant foxtail [15]; [19]): 80; Corn plant response rating (corn [16]; [18]): 0; Plant response rating, Corn (corn [16]; [19]): 20; Barnyardgrass plant response rating (0 to 100 scale, 0 is no effect, 100 is complete control) (barnyardgrass [17]): 0; Barnyardgrass plant response rating (barnyardgrass [17]; [19]): 10 |
| N#Cc1cccc(Oc2ncc(Cl)cn2)c1-n1cncn1 [Compound 193] | – | – | – | – | – | – | – | – | 0 | 0 | – | – | – | – | – | – | – | – | 0 | 0 | Plant response rating, Wheat (wheat [1]; [20]): 20; Plant response rating, Velvetleaf (velvetleaf [2]; [20]): 90; Morningglory plant response rating (morningglory [3]; [21]): 100; Velvetleaf plant response rating (velvetleaf [4]; [21]): 90; Wheat plant response rating (wheat [6]; [21]): 20; Plant response rating, Pigweed (pigweed [7]; [20]): 100; Crabgrass, Large plant response rating (large (Lg) crabgrass [8]; [21]): 100; Plant response rating, Crabgrass, Large (large (Lg) crabgrass [9]; [20]): 80; Pigweed plant response rating (pigweed [10]; [21]): 100; Plant response rating, Foxtail, Giant (giant foxtail [11]; [20]): 80; Plant response rating, Morningglory (morningglory [12]; [20]): 90; Corn plant response rating (corn [13]; [21]): 20; Plant response rating, Barnyardgrass (barnyardgrass [14]; [20]): 90; Foxtail, Giant plant response rating (giant foxtail [15]; [21]): 100; Plant response rating, Corn (corn [16]; [20]): 60; Barnyardgrass plant response rating (barnyardgrass [17]; [21]): 60 |
| Fc1cc(Oc2ncc(Cl)cn2)c(-n2cc(Br)cn2)cc1F [Compound 196] | 0 | 10 | 100 | 100 | 0 | 0 | 20 | 40 | 20 | 70 | 0 | 0 | 100 | 100 | 60 | 100 | 30 | 90 | 85 | 0 | Pigweed plant response rating (0 to 100 scale) (pigweed [10]): 90; Pigweed plant response rating (pigweed [10]; [19]): 100; Foxtail, Giant plant response rating (giant foxtail [11]; [18]): 30; Plant response rating, Foxtail, Giant (giant foxtail [11]; [19]): 80; Morningglory plant response rating (morningglory [12]; [18]): 20; Plant response rating, Morningglory (morningglory [12]; [19]): 80; Corn plant response rating (0 to 100 scale) (corn [13]): 0; Corn plant response rating (corn [13]; [19]): 0; Barnyardgrass plant response rating (barnyardgrass [14]; [18]): 10; Plant response rating, Barnyardgrass (barnyardgrass [14]; [19]): 50; Foxtail, Giant plant response rating (0 to 100 scale) (giant foxtail [15]): 50; Foxtail, Giant plant response rating (giant foxtail [15]; [19]): 90; Corn plant response rating (corn [16]; [18]): 10; Plant response rating, Corn (corn [16]; [19]): 40; Barnyardgrass plant response rating (0 to 100 scale, 0 is no effect, 100 is complete control) (barnyardgrass [17]): 0; Barnyardgrass plant response rating (barnyardgrass [17]; [19]): 40 |
| C#Cc1cccc(Oc2ncc(Cl)cn2)c1-n1cc(Br)cn1 [Compound 199] | 0 | 30 | 70 | 100 | 0 | 20 | 20 | 90 | 0 | 70 | 0 | 0 | 80 | 100 | 100 | 100 | 40 | 90 | 70 | 20 | Pigweed plant response rating (0 to 100 scale) (pigweed [10]): 90; Pigweed plant response rating (pigweed [10]; [19]): 100; Foxtail, Giant plant response rating (giant foxtail [11]; [18]): 70; Plant response rating, Foxtail, Giant (giant foxtail [11]; [19]): 90; Morningglory plant response rating (morningglory [12]; [18]): 40; Plant response rating, Morningglory (morningglory [12]; [19]): 60; Corn plant response rating (0 to 100 scale) (corn [13]): 0; Corn plant response rating (corn [13]; [19]): 0; Barnyardgrass plant response rating (barnyardgrass [14]; [18]): 30; Plant response rating, Barnyardgrass (barnyardgrass [14]; [19]): 80; Foxtail, Giant plant response rating (0 to 100 scale) (giant foxtail [15]): 90; Foxtail, Giant plant response rating (giant foxtail [15]; [19]): 100; Corn plant response rating (corn [16]; [18]): 20; Plant response rating, Corn (corn [16]; [19]): 60; Barnyardgrass plant response rating (0 to 100 scale, 0 is no effect, 100 is complete control) (barnyardgrass [17]): 20; Barnyardgrass plant response rating (barnyardgrass [17]; [19]): 80 |
